Data from patent publication US20250361281A1, “AMYLIN RECEPTOR (hAMY3R) AGONISTS WITH IMPROVED CHEMICAL STABILITY” (GUBRA A/S, priority 2022, published 2025).
Starred links: 1 amine or outer side, 2 acyl side, 3 side chain; linkers in the order of their positions; H or OH if unused. Positions of bridges follow the written chain, without caps; N, C: chain ends. Non-standard residues stand in square brackets, D forms with d. Residues, ends and D or L forms follow the SMILES beside them. No end group written: not given here. *: point of attachment. C20 diacid = O=C(O)CCCCCCCCCCCCCCCCCCC(=O)*; γGlu = O=C(O)[C@H](CCC(=O)[*:2])N[*:1]; Hyp = O=C(O)[C@@H]1C[C@@H](O)CN1

B1: polypeptide KCLTATCTVARLAEQIAQFTDKDKENVAPPTAVGSAG[Hyp] (SEQ ID NO: 4) (peptide)
peptide: {C20 diacid-γGlu}-KCLTATCTVARLAEQIAQFTDKDKENVAPPTAVGSAG[Hyp]
modifications: bridge 2-7 via ‑S‑CH2‑S‑; also: C-terminal generally amidated (-CONH2) per the definitions

Experiments:
[1] = cited from earlier work; for fibrillation at pH 7: pH 7, background statement
[2] = Physical stability of peptide analogues (Thioflavin T fibrillation); format: physicochemical; conditions: ThT fluorescence, 40° C., shaking, four days; pH 4 or pH 7 buffer
Experimental: General Protocols for Determination of Physical Stability of Peptide Analogues
Peptides were dissolved in buffers (50 mM sodium acetate at pH 4 or 50 mM sodium phosphate at pH 7) and incubated for one hour. The samples were then divided into two replicates of 80 μl in a black 384 well plate (μ-clear, Greiner Bio-One) and mixed with Thioflavin T (ThT) to a final concentration of 4 μM. The plate was sealed and placed in a plate reader (CLARIOstar, BMG) where the temperature was set at 40° C. during the course of the experiment. The samples were further stressed by shaking the plate at 700 rpm (linear) for five minutes before every measurement. The fluorescence was measured every 10 min for four days by exciting the ThT at 450 nm and measuring the emission at 480 nm. For each peptide, the ThT signal over time was smoothened using Local Polynomial Regression fitting (LOESS) as implemented in the statistical programming environment R. For the smoothened data, the maximum ThT signal was normalized in percent between the maximum ThT signal for hAMY and the buffer background.

hAMY3 receptor = target: T1, hAMY3 receptor (Homo sapiens, UniProt O60896+P30988); conditions: previously shown (WO 2022/063925 A1); read-out: hAMY3R EC50; cited from earlier work
T1 construct: monoclonal sub-clone
T1 sequence (P30988 25-474): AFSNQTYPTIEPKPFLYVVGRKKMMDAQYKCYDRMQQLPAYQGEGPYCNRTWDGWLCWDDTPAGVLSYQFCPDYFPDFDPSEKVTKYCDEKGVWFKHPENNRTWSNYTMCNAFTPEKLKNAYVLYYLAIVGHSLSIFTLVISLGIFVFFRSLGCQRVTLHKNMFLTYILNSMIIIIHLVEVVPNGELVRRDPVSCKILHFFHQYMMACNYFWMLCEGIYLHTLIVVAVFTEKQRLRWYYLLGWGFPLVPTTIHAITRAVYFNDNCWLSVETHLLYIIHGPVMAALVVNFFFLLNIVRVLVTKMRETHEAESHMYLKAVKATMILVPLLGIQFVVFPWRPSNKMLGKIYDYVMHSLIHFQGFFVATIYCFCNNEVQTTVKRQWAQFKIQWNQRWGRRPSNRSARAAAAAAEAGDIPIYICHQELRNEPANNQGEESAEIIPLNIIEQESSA
T1 sequence (O60896 24-148 partner): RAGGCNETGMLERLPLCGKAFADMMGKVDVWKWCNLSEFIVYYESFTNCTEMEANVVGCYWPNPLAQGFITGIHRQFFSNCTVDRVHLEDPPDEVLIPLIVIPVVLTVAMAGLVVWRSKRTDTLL

[3] = Determination of dimer and HMWP formation (size exclusion chromatography); format: physicochemical; conditions: 50 mM phosphate buffer pH 7, 40° C., up to 28 days
Experimental: General Protocol for Determination of Dimer and HMWP Formation
Peptides were dissolved in 50 mM phosphate buffer (pH 7) and incubated at 40° C. for up to 28 days. The samples were then analysed using size exclusion chromatography analysis to quantify the amount of High Molecular Weight Products (HMWP), which is an overall term for covalently linked peptide dimers, trimers, and higher order multimers. Analyses were carried out on a Dionex Ultimate 3000 RS UHPLC Focused chromatography system (Thermo Scientific) equipped with a Acquity Protein BEH SEC 1.7 μm 4.6×300 mm 125 Å column (Waters part no 186006506). The solvent system consisted of two mobile phases that are assumed to break all non-covalent interactions between peptides leaving only monomeric peptide and covalent HMWP to be analysed. • Mobile phase A (all v/v %): 95% H2O, 5% MeCN (Acetonitrile), 0.1% TFA (Trifluoroacetic acid) • Mobile phase B (all v/v %): 95% MeCN, 5% H2O, 0.1% TFA
The typically load was 1 μl of 1.0 mg/ml, and the detection signal at 215 nm should optimally be between 0.1 and 1.5 abs units. Isocratic elution was done with 60% mobile phase B and a flow of 0.3 ml/min in 20 minutes. Chromatograms were integrated as HMWP (all peaks in front of the main peak) The amount of the various species was reported as area relative to total area in percentage.

[4] = Determination of deamidation and isomerization (LC-MS); format: physicochemical; conditions: 50 mM phosphate buffer pH 7, 40° C., up to 28 days
Experimental: General Protocol for Determination of Deamidation and Isomerization
Peptides were dissolved in 50 mM phosphate buffer (pH 7) and incubated at 40° C. for up to 28 days. The samples were then analysed on a Exploris120 mass spectrometer coupled to a Vanquish Tandem UPLC (both Thermo Fisher) equipped with an Acquity BEH C18 column (1.7 um, 2.1×50 mm, 130A, Waters). Peptides were eluted using a linear gradient starting at 5% over 7.5 min to 70% buffer B at a flow rate of 0.4 mL/min (buffer B=100% acetonitrile with 0.1% formic acid; buffer A=100% water with 0.1% formic acid). Data were acquired in data-dependent acquisition mode at a MS1 resolution of 60.000, and a MS2 resolution of 30.000 in positive mode (Top4). Peptides were fragmented with a normalized collision energy of 25%. Deamidation and isomerization were quantified using area under the curve integration.

hAM1 receptor = target: T2, hAM1 receptor (Homo sapiens, UniProt O60895+Q16602); conditions: previously shown (WO 2022/063925 A1); read-out: hAM1R EC50; cited from earlier work
T2 construct: monoclonal sub-clone

[5] = target: human adrenomedullin receptor 1 (hAM1R) (human, UniProt Q16602 23-461; O60895 43-175); experiment: cell-based or functional assay
[6] = target: T3, human amylin receptor 3 (hAMY3R) (human, UniProt P30988 25-474; O60896 24-148); experiment: cell-based or functional assay
T3 sequence (looked up) 1: T1 sequence (P30988 25-474)
T3 sequence (looked up) 2: T1 sequence (O60896 24-148 partner)

Sequence of human adrenomedullin receptor 1 (hAM1R) (Q16602 23-461, chain 1 of 2): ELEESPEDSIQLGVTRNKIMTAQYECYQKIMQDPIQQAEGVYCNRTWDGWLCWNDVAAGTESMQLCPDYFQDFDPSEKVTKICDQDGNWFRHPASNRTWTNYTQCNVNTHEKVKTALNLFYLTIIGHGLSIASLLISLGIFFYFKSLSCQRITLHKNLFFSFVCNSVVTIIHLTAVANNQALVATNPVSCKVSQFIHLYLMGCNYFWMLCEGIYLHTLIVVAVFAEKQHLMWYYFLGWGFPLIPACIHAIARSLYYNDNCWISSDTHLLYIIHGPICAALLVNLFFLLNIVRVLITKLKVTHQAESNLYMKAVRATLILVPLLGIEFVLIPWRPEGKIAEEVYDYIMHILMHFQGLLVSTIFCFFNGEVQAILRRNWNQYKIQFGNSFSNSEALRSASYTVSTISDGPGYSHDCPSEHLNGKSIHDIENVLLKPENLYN
Sequence of human adrenomedullin receptor 1 (hAM1R) (O60895 43-175, chain 2 of 2): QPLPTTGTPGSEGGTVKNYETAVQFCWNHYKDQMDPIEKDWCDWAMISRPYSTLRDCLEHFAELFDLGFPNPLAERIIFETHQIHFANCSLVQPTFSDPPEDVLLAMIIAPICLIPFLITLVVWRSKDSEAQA
T2 sequence (Q16602 23-461): as the sequence (Q16602 23-461, chain 1 of 2) above
T2 sequence (O60895 43-175 partner): as the sequence (O60895 43-175, chain 2 of 2) above

| Molecule | Fibril formation [2] | hAM1R EC50 (nM), cAMP accumulation [5] | hAMY3R EC50 (nM), cAMP accumulation [6] | further results |
| --- | --- | --- | --- | --- |
| CC[C@H](C)[C@H](NC(=O)[C@@H]1CCCN1C(=O)CNC(=O)[C@H](Cc1ccccc1)NC(=O)[C@H](CC(N)=O)NC(=O)[C@H](CC(N)=O)NC(=O)[C@H](CO)NC(=O)[C@H](CO)NC(=O)[C@H](Cc1c[nH]cn1)NC(=O)[C@@H](NC(=O)[C@H](CC(C)C)NC(=O)[C@H](Cc1ccccc1)NC(=O)[C@H](CC(N)=O)NC(=O)[C@H](C)NC(=O)[C@H](CC(C)C)NC(=O)[C@H](CCCNC(=N)N)NC(=O)[C@H](CCC(N)=O)NC(=O)[C@@H](NC(=O)[C@H](C)NC(=O)[C@@H]1CSSC[C@H](NC(=O)[C@@H](N)CCCCN)C(=O)N[C@@H](CC(N)=O)C(=O)N[C@@H]([C@@H](C)O)C(=O)N[C@@H](C)C(=O)N[C@@H]([C@@H](C)O)C(=O)N1)[C@@H](C)O)C(C)C)C(=O)N[C@@H](CC(C)C)C(=O)N1CCC[C@H]1C(=O)N1CCC[C@H]1C(=O)N[C@H](C(=O)N[C@@H](CC(N)=O)C(=O)N[C@H](C(=O)NCC(=O)N[C@@H](CO)C(=O)N[C@@H](CC(N)=O)C(=O)N[C@H](C(=O)N[C@@H](Cc1ccc(O)cc1)C(N)=O)[C@@H](C)O)C(C)C)[C@@H](C)O [Pramlintide] | – | – | – | fibrillation at pH 7 [1]: fibrillates |
| CC[C@H](C)[C@H](NC(=O)[C@H](CCC(N)=O)NC(=O)[C@H](Cc1c[nH]cn1)NC(=O)[C@H](C)NC(=O)[C@H](CC(C)C)NC(=O)[C@H](CCCCN)NC(=O)[C@H](CCC(N)=O)NC(=O)[C@@H](NC(=O)[C@@H](NC(=O)[C@@H]1CSSC[C@H](NC(=O)CN)C(=O)N[C@@H](CCCNC(=N)N)C(=O)N[C@@H](Cc2ccccc2)C(=O)NCC(=O)N[C@@H]([C@@H](C)O)C(=O)N1)[C@@H](C)O)C(C)C)C(=O)N[C@@H](Cc1ccc(O)cc1)C(=O)N[C@@H](CCC(N)=O)C(=O)N[C@@H](Cc1ccccc1)C(=O)N[C@H](C(=O)N[C@@H](CC(=O)O)C(=O)N[C@@H](CCCCN)C(=O)N[C@@H](CC(=O)O)C(=O)N[C@@H](CCCCN)C(=O)N[C@@H](CC(=O)O)C(=O)N[C@@H](CC(N)=O)C(=O)N[C@H](C(=O)N[C@@H](C)C(=O)N1CCC[C@H]1C(=O)N[C@@H](CCCNC(=N)N)C(=O)N[C@@H](CO)C(=O)N[C@@H](CCCCN)C(=O)N[C@H](C(=O)N[C@@H](CO)C(=O)N1CCC[C@H]1C(=O)N[C@@H](CCC(N)=O)C(=O)NCC(=O)N[C@@H](Cc1ccc(O)cc1)C(N)=O)[C@@H](C)CC)C(C)C)[C@@H](C)O [SEQ ID NO: 1] | No | – | – | fibrillation at pH 7 [1]: does not fibrillate |
| CC[C@H](C)[C@H](NC(=O)[C@H](C)NC(=O)CNC(=O)[C@H](Cc1ccccc1)NC(=O)[C@H](CC(N)=O)NC(=O)[C@H](CC(N)=O)NC(=O)[C@H](CO)NC(=O)[C@H](CO)NC(=O)[C@H](Cc1c[nH]cn1)NC(=O)[C@@H](NC(=O)[C@H](CC(C)C)NC(=O)[C@H](Cc1ccccc1)NC(=O)[C@H](CC(N)=O)NC(=O)[C@H](C)NC(=O)[C@H](CC(C)C)NC(=O)[C@H](CCCNC(=N)N)NC(=O)[C@H](CCC(N)=O)NC(=O)[C@@H](NC(=O)[C@H](C)NC(=O)[C@@H]1CSSC[C@H](NC(=O)[C@@H](N)CCCCN)C(=O)N[C@@H](CC(N)=O)C(=O)N[C@@H]([C@@H](C)O)C(=O)N[C@@H](C)C(=O)N[C@@H]([C@@H](C)O)C(=O)N1)[C@@H](C)O)C(C)C)C(=O)N[C@@H](CC(C)C)C(=O)N[C@@H](CO)C(=O)N[C@@H](CO)C(=O)N[C@H](C(=O)N[C@@H](CC(N)=O)C(=O)N[C@H](C(=O)NCC(=O)N[C@@H](CO)C(=O)N[C@@H](CC(N)=O)C(=O)N[C@H](C(=O)N[C@@H](Cc1ccc(O)cc1)C(N)=O)[C@@H](C)O)C(C)C)[C@@H](C)O [SEQ ID NO: 2] | Yes | – | – | – |
| CC[C@H](C)[C@H](NC(=O)[C@H](CCC(N)=O)NC(=O)[C@H](CCC(=O)O)NC(=O)[C@H](C)NC(=O)[C@H](CC(C)C)NC(=O)[C@H](CCCNC(=N)N)NC(=O)[C@H](CCC(N)=O)NC(=O)[C@@H](NC(=O)[C@@H](NC(=O)[C@@H]1CSSC[C@H](NC(=O)[C@H](CCCCN)NC(=O)CC[C@H](NC(=O)CCCCCCCCCCCCCCCCCCC(=O)O)C(=O)O)C(=O)N[C@@H](CC(N)=O)C(=O)N[C@@H]([C@@H](C)O)C(=O)N[C@@H](C)C(=O)N[C@@H]([C@@H](C)O)C(=O)N1)[C@@H](C)O)C(C)C)C(=O)N[C@@H](C)C(=O)N[C@@H](CCC(N)=O)C(=O)N[C@@H](Cc1ccccc1)C(=O)N[C@H](C(=O)N[C@@H](CC(=O)O)C(=O)N[C@@H](CCCCN)C(=O)N[C@@H](CC(=O)O)C(=O)N[C@@H](CCCCN)C(=O)N[C@@H](CC(=O)O)C(=O)N[C@@H](CC(N)=O)C(=O)N[C@H](C(=O)N[C@@H](C)C(=O)N1CCC[C@H]1C(=O)N1CCC[C@H]1C(=O)N[C@H](C(=O)N[C@@H](CC(N)=O)C(=O)N[C@H](C(=O)NCC(=O)N[C@@H](CO)C(=O)N[C@@H](CC(N)=O)C(=O)NCC(=O)N1C[C@H](O)C[C@H]1C(N)=O)C(C)C)[C@@H](C)O)C(C)C)[C@@H](C)O [SEQ ID NO: 3] ({C20 diacid-γGlu}-KCNTATCTVQRLAEQIAQFTDKDKDNVAPPTNVGSNG[Hyp]-NH2; disulfide 2-7) | No | – | – | EC50 (hAMY3 receptor): 14 nM; fibrillation ([1]; previously shown): no fibrillation; Dimerization and HMWP formation [3]: 12%; Deamidation [4]: 97%; Isomerization [4]: 5%; EC50 (hAM1 receptor): > 5000 nM |
| {C20 diacid-γGlu}-KCNTATCTVQRLAEQIAQFTDKDKDNVAPPTNVGSNG[Hyp] (disulfide 2-7; also: C-terminal generally amidated (-CONH2) per the definitions) [reference polypeptide KCNTATCTVQRLAEQIAQFTDKDKDNVAPPTNVGSNG[Hyp] (SEQ ID NO: 3)] | – | > 5000 nM | 0.014 nM | – |
| KCNTATCATQRLANFLVHSSNNFGAILSSTNVGSNTY-NH2 (disulfide 2-7) [human amylin hAMY1-37] | – | > 5000 nM | 0.01 nM | – |
| B1 | – | > 5000 nM | 0.009 nM | – |
